Assay results taken from patent US6537994B2, “Heterocyclic β3 adrenergic receptor agonists” (Wyeth, priority 2000, dated 2003).
Values joined by “and” are separate entries in the source; they are usually repeats but may differ in a detail not shown here. Equal entries are not always repeated.

What was measured:
human β3-AR = target: T1, human β3-AR (Homo sapiens, UniProt P13945); test: cAMP accumulation (SPA) in CHO cells transfected with human β3 adrenergic receptor; format: cell-based; conditions: for EC50: CHO cells expressing human β3-AR, cAMP, 30 min incubation, 10^−9 M to 10^−5 M; for IA(β3): maximal response, IA=% activity compound/% activity isoproterenol at 10^−5 M
T1 construct: Full length β3 AR clones (402 amino acids) containing the last 6 amino acids of hβ3-AR; expressed in transfected cells; host or cells: CHO cells
T1 sequence (P13945 whole entry): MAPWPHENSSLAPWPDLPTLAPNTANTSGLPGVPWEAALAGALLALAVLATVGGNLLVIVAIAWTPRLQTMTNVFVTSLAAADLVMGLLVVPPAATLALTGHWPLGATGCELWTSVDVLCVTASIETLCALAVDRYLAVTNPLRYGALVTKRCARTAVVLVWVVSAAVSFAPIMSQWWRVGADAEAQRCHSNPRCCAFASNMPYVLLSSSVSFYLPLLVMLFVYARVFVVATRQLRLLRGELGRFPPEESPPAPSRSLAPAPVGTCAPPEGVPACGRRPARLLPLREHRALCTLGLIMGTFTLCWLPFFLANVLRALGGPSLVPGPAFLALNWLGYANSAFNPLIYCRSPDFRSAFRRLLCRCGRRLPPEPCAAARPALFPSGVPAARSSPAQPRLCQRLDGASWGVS
Protocol: The ability of compounds of this invention to treat or inhibit disorders related to insulin resistance or hyperglycemia was confirmed with representative compounds of this invention in the following standard pharmacological test procedures, which measured the binding selectivity to the β1, β2, and β3 adrenergic receptors. Binding to the receptors was measured in Chinese Hamster ovary (CHO) cells that were transfected with adrenergic receptors. The following briefly summarizes the procedures used and results obtained.
Cloning of Human β3-AR Genomic DNA: cDNA was constructed by ligating four polymerase chain reaction (PCR) products using the following primers: an ATG-Narl fragment, sense primer 5′-[…]3′ and anti-sense primer 5′[…]3′; a Narl-Accl fragment, 5′[…]3′ as sense and 5′[…]3′ as anti-sense primer; an Accli-Styl fragment, sense primer 5′[…]3′ and anti-sense primer 5′[…]3′ and a Styl-TAG fragment, with sense primer 5′[…]3′ and anti-sense primer 5′[…]3′. The corresponding primer sequences are described in Mantzoros, C. S., et. al., Diabetes 45: 909-914 (1996). The four fragments are ligated into a pUC 18 plasmid (Gibco-BRL) and sequenced. Full length β3 AR clones (402 amino acids) containing the last 6 amino acids of hβ3-AR are prepared with the β3-βARpcDNA3 from ATTC.
Binding Procedure: Clones expressing receptor levels of 70 to 110 fmoles/mg protein were used in the test procedures. CHO cells were grown in 24-well tissue culture plates in Dulbecco's Modified Eagle Media with 10% fetal bovine serum, MEM non-essential amino acids, Penicillin-Streptompycin and Geneticin. On the day of test procedure, growth medium was replaced with preincubation media (Dulbecco's Modified Eagle Media and incubated for 30 minutes at 37° C. Preincubation medium was replaced with 0.2 ml treatment medium containing DMEM media containing 250 μM IBMX (isobutyl-1-methylxantine) plus 1 mM ascorbic acid with test compound dissolved in DMSO. Test compounds were tested over a concentration range of 10^−9 M to 10^−5 M for β3 cells and 10^−8 to 10^−4 M for β1 and β2 transfected cells. Isoproterenol (10^−5 M) was used as an internal standard for comparison of activity. Cells were incubated at 37° C. on a rocker for 30 min with the β3 cells and 15 min for β1 and β2 cells. Incubation was stopped with the addition of 0.2N HCl and neutralized with 2.5N NaOH. The plates, containing the cells and neutralized media, were stored at −20 degrees celsius until ready to test for cAMP using the SPA test kit (Amersham).
Data Analysis and Results: Data collected from the SPA test procedure were analyzed as per cent of the maximal isoproterenol response at 10^−5 M. Activity curves were plotted using the SAS statistical and graphics software.
IA=% activity compound/% activity isoproterenol

Structure (SMILES)	EC50 (human β3-AR)	IA(β3) (human β3-AR)	melting point
CCCCCc1nc2cccnc2n1-c1ccc(CCNC[C@H](O)COc2ccc(O)cc2)cc1 [Example 9, 4-((2S)-2-Hydroxy-3-{2-[4-(2-pentyl-imidazo[4,5-b]pyridin-3-yl)-phenyl]-ethylaminol}-propoxy)-phenol]	266 nM	0.74	50 to 52 °C
CCCCCCNC(=O)Nc1ccc(CCc2nc3cccnc3n2-c2ccc(CCNC[C@H](O)COc3ccc(O)cc3)cc2)cc1 (hydrate or solvate) [Example 17, 1-Hexyl-3-(4-{2-[3-(4-{2-[(2S)-2-hydroxy-3-(4-hydroxy-phenoxy)-propylamino]-ethyl}-phenyl)-3H-imidazo[4,5-b]pyridin-2-yl]-ethyl}-phenyl)-urea]	–	–	90 to 92 °C
Oc1ccc(OC[C@@H](O)CNCCc2ccc(-n3c(-c4ccc(C5CCCCC5)cc4)nc4cccnc43)cc2)cc1 [Example 10, 4-[(2S)-3-(2-{4-[2-(4-Cyclohexyl-phenyl)-imidazo[4,5-b]pyridin-3-yl]-phenyl}-ethylamino)-2-hydroxy-propoxy]-phenol]	6 nM	0.96	100 to 102 °C
O=[N+]([O-])c1cccnc1Nc1ccc(CCNC[C@H](O)COc2ccc(O)cc2)cc1 [Example 1, 4-((2S)-2-Hydroxy-3-{2-[4-(3-nitro-pyridin-2-ylamino)-phenyl]-ethylamino}-propoxy)-phenol]	324 nM	0.65	–
CCCCCCNC(=O)Nc1ccc(-c2nc3cccnc3n2-c2ccc(CCNC[C@H](O)COc3ccc(O)cc3)cc2)cc1 [Example 15, N-hexyl-N′-(4-{3-[4-(2-{[(2S)-2-hydroxy-3-(4-hydroxyphenoxy)propyl]amino}ethyl)phenyl]-3H-imidazo[4,5-b]pyridin-2-yl}phenyl)urea]	70 nM	1.05	–
Nc1cccnc1Oc1ccc(CCNC[C@H](O)COc2ccc(O)cc2)cc1 [Example 5, 4-((2S)-3-{2-[4-(3-Amino-pyridin-2-yloxy)-phenyl]-ethylamino}-2-hydroxy-propoxy)-phenol]	20 nM	1.12	–
Oc1ccc(OC[C@@H](O)CNCCc2ccc(-n3c(CCC4CCCC4)nc4cccnc43)cc2)cc1 [Example 11, 4-[(2S)-3-(2-{4-[2-(2-Cyclopentyl-ethyl)-imidazo[4,5-b]pyridin-3-yl]-phenyl}-ethylamino)-2-hydroxy-propoxy]-phenol]	10 nM	0.86	59 to 61 °C
Oc1ccc(OC[C@@H](O)CNCCc2ccc(-n3cnc4cccnc43)cc2)cc1 [Example 3, 4-{(2S)-2-Hydroxy-3-[2-(4-imidazo[4,5-b]pyridin-3-yl-phenyl)-ethylamino]-propoxy}-phenol]	95 nM	0.76	–
CCCCCCNC(=O)Nc1ccc(-c2nc3cccnc3n2-c2ccc(CCNC[C@H](O)COc3ccc(O)cc3)cc2)cc1 (hydrate or solvate) [Example 15, N-hexyl-N′-(4-{3-[4-(2-{[(2S)-2-hydroxy-3-(4-hydroxyphenoxy)propyl]amino}ethyl)phenyl]-3H-imidazo[4,5-b]pyridin-2-yl}phenyl)urea]	–	–	110 to 116 °C
Oc1ccc(OC[C@@H](O)CNCCc2ccc(-n3cnc4cccnc43)cc2)cc1 (hydrate or solvate) [Example 3, 4-{(2S)-2-Hydroxy-3-[2-(4-imidazo[4,5-b]pyridin-3-yl-phenyl)-ethylamino]-propoxy}-phenol]	–	–	49 to 52 °C
CCc1ccc(-c2nc3cccnc3n2-c2ccc(CCNC[C@H](O)COc3ccc(O)cc3)cc2)cc1 [Example 8, 4-[(2S)-3-(2-{4-[2-(4-Ethyl-phenyl)-imidazo[4,5-b]pyridin-3-yl]-phenyl}-ethylamino)-2-hydroxy-propoxy]-phenol]	6 nM	1.03	75 to 78 °C
C=C(C)n1c(=O)n(-c2ccc(CCNC[C@H](O)COc3ccc(O)cc3)cc2)c2ncccc21 [Example 7, 3-(4-{2-[(2S)-2-Hydroxy-3-(4-hydroxy-phenoxy)-propylamino]-ethyl}-phenyl)-1-isopropenyl-1,3-dihydro-imidazo[4,5-b]pyridin-2-one]	57 nM	1.12	62 to 64 °C
Nc1cccnc1Nc1ccc(CCNCC(O)COc2ccc(O)cc2)cc1 (stereo in doubt) [Example 2, 4-((2R)-3-{2-[4-(3-Amino-pyridin-2-ylamino)-phenyl]-ethylamino}-2-hydroxy-propoxy)-phenol]	72 nM	1.01	–

Other lines, results leading:

EC50 (human β3-AR)	IA(β3) (human β3-AR)	melting point	Structure (SMILES)
–	–	148 to 149 °C	O=[N+]([O-])c1cccnc1Nc1ccc(CCNC[C@H](O)COc2ccc(O)cc2)cc1 (hydrate or solvate) [Example 1, 4-((2S)-2-Hydroxy-3-{2-[4-(3-nitro-pyridin-2-ylamino)-phenyl]-ethylamino}-propoxy)-phenol]
46 nM	0.087	–	CCCCCc1nc2cccnc2n1-c1ccc(CCNC[C@H](O)COc2cccc3[nH]c(=O)[nH]c23)cc1 [Example 13, 4-((2S)-2-Hydroxy-3-{2-[4-(2-pentyl-imidazo[4,5-b]pyridin-3-yl)-phenyl]-ethylaminol}-propoxy)-1,3-dihydro-benzoimidazol-2-one]
54 nM	0.086	87 to 89 °C	Cc1ccn(-c2ccc(-c3nc4cccnc4n3-c3ccc(CCNCC(O)COc4ccc(O)cc4)cc3)c(Cl)c2)n1 (stereo not drawn) [Example 14, 4-{3-[2-(4-{2-[2-Chloro-4-(3-methyl-pyrazol-1-yl)-phenyl]-imidazo[4,5-b]pyridin-3-yl}-phenyl)-ethylamino]-2-hydroxy-propoxy}-phenol]
–	–	63 to 65 °C	Nc1cccnc1Nc1ccc(CCNC[C@H](O)COc2ccc(O)cc2)cc1 (hydrate or solvate) [Example 2, 4-((2R)-3-{2-[4-(3-Amino-pyridin-2-ylamino)-phenyl]-ethylamino}-2-hydroxy-propoxy)-phenol]
5 nM and 15 nM	–	115 to 117 °C	O=c1[nH]c2cccc(OCC(O)CNCCc3ccc(-n4c(CCC5CCCC5)nc5cccnc54)cc3)c2[nH]1 (stereo not drawn) [Example 12, 4-[3-(2-{4-[2-(2-Cyclopentyl-ethyl)-imidazo[4,5-b]pyridin-3-yl]-phenyl}-ethylamino) -2-hydroxy-propoxy]-1,3-dihydro-benzoimidazol-2-one]
–	–	93 to 95 °C	CCCCCCNC(=O)Nc1cccc(-c2nc3cccnc3n2-c2ccc(CCNCC(O)COc3ccc(O)cc3)cc2)c1 (stereo not drawn) (hydrate or solvate) [Example 16, 1-Hexyl-3-{3-[3-(4-{2-[2-hydroxy-3-(4-hydroxy-phenoxy)-propylamino]-ethyl}-phenyl)-3H-imidazo[4,5-b]pyridin-2-yl]-phenyl}-urea]
–	–	61 to 64 °C	CCCCCCNC(=O)Nc1cccnc1Nc1ccc(CCNC[C@H](O)COc2ccc(O)cc2)cc1 [Example 4, 1-Hexyl-3-[2-(4-{2-[(2S)-2-hydroxy-3-(4-hydroxy-phenoxy)-propylamino]-ethyl}-phenylamino)-pyridin-3-yl]-urea]
83 nM	0.88	97 to 99 °C	O=C(Nc1cccnc1Nc1ccc(CCNC[C@H](O)COc2ccc(O)cc2)cc1)c1ccccc1 [Example 6, N-[2-(4-{2-[(2S)-2-Hydroxy-3-(4-hydroxy-phenoxy)-propylamino]-ethyl}-phenylamino)-pyridin-3-yl]-benzamide]
